BigSolDB 2.1

Cc1cc(N)n(-c2ccccc2)n1
solubility (mole fraction)
Details	in 2-butanone	in acetonitrile	in ethanol	in isopropanol	in methanol	in n-propanol
283.15 K	0.0482	0.124	0.0766	0.056	0.0852	0.0705
285.65 K	0.0511	0.13	0.0811	0.0593	0.089	0.0749
288.15 K	0.0546	0.137	0.0854	0.0632	0.0938	0.0795
290.65 K	0.0581	0.144	0.0903	0.0672	0.0988	0.0839
293.15 K	0.0618	0.15	0.0955	0.0711	0.104	0.0889
295.65 K	0.0653	0.157	0.101	0.0755	0.109	0.0946
298.15 K	0.0694	0.164	0.107	0.0802	0.115	0.0997
300.65 K	0.0736	0.172	0.113	0.0851	0.121	0.105
303.15 K	0.0784	0.18	0.119	0.0906	0.127	0.112
305.65 K	0.0829	0.189	0.126	0.0957	0.134	0.118
308.15 K	0.0881	0.198	0.132	0.102	0.14	0.125
310.65 K	0.0931	0.206	0.139	0.108	0.147	0.132
313.15 K	0.0989	0.216	0.147	0.114	0.154	0.139
315.65 K	0.105	0.226	0.154	0.121	0.162	0.147
318.15 K	0.111	0.236	0.163	0.129	0.171	0.155
